The Ki is the equilibrium dissociation constant of an inhibitor or competing ligand from its target. Broadly, the EC50 is the concentration that produces a half-maximal response.

The target in experiment [1] is T1, human full-length glucocorticoid receptor (Homo sapiens, UniProt P04150).
T1 construct: recombinantly expressed human full-length glucocorticoid receptor; purchased PanVera Co., Madison, Wis; P2816
T1 sequence (P04150 1-777): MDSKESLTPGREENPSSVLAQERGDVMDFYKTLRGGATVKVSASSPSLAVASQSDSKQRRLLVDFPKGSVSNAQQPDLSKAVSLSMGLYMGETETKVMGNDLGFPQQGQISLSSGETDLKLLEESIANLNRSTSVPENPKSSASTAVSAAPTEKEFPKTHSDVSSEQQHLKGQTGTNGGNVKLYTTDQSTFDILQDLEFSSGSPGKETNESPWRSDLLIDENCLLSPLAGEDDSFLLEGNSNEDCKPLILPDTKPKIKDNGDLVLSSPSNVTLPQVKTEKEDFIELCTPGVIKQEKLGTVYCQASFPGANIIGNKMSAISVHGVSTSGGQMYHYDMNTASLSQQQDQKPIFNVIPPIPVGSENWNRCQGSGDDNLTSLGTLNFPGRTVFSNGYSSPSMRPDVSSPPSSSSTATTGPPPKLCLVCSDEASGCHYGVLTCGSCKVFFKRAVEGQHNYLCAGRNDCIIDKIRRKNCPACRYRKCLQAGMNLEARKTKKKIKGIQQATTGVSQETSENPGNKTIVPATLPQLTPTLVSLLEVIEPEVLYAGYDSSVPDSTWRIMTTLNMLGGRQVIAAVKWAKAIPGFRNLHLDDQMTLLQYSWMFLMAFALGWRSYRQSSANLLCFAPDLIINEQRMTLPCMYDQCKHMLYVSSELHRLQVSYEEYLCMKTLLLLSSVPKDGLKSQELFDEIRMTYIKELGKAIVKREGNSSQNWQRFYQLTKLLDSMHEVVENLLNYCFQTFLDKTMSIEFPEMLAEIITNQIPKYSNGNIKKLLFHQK
The experiment is described as follows: Glucocorticoid Receptor Binding Assay (II), fluorescence polarization competitor kit (Fluormone GS1). The settings on record: cell lysate with recombinant human full-length GR. Here is the method:
In order to measure the binding of compounds on the glucocorticoid receptor a commercially available kit was used (Glucocorticoid receptor competitor assay kit, PanVera Co., Madison, Wis., P2816). Briefly, a cell lysate containing recombinantly expressed human full-length glucocorticoid receptor was mixed with a fluorescently labeled glucocorticoid (1 nM Fluormone GS1) in the presence or absence of test compound. After one hour at room temperature, the fluorescence polarization (FP) of the samples were measured. […] Test molecules were analyzed in the concentration range from 2.4 nM to 40 microMolar.

Experiment [2] concerns AP-1 induced transcriptional activity. The experiment is described as follows: Cellular Transrepressional Assay (AP-1 luciferase reporter in A549 cells, PMA-activated). To be noted: pAP-1-Luc, 10 ng/ml PMA, read-out: AP-1 (EC50, nM) (Cellular Transrepression Assay). The format is cell-based. In a few lines: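 A549 cells stably carrying a 7×AP-1-luciferase reporter, stimulated with 10 ng/ml PMA with or without compound (0.1 nM-40 μM) for 7 h. Luciferase luminescence read 10 min after reagent addition; repression is percentage decrease of PMA-alone signal, EC50 by curve fitting.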

Experiment [3] addresses T2, human glucocorticoid receptor (Homo sapiens, UniProt P04150).
T2 construct: purified human recombinant full-length glucocorticoid receptor (2 nM); purchased Invitrogen Part # 2893
T2 sequence (P04150 1-777): T1 sequence (P04150 1-777)
The experiment is described as follows: Glucocorticoid Receptor Binding Assay (I), fluorescence polarization competitor kit (Fluormone GS Red). To be noted: purified human recombinant full-length GR. In short, it runs like this: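 Fluorescence polarization competition: full-length recombinant human GR (2 nM) incubated with 1 nM Fluormone GS Red plus test compound (8.5E-05 to 5 μM) for 2 h at room temperature in the dark before FP read-out.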
On the technique in general: In fluorescence polarisation assays a small probe gives low polarisation when free and higher when bound to something large.

Like-named read-outs stand apart in the source and are kept apart here.

For the compound `CC(C)(CNC(=O)C(F)(F)F)C(c1ccccc1)c1ccc2c(cnn2C2CCCCCC2)c1` (stereo not shown) [Example 114, N-(3-(1-Cycloheptyl-1H-indazol-5-yl)-2,2-dimethyl-3-phenylpropyl)-2,2,2-trifluoroacetamide], the inhibition constant (Ki) in experiment [1] was 33 nM. Besides, the concentration for a half-maximal effect (EC50) in experiment [2] (Homo sapiens, A549, 7 h) was more than 10000 nM.

On to `CC(C)(C(O)c1cccs1)C(c1ccccc1)c1ccc2c(cnn2-c2ccc(F)cc2)c1` (stereo not shown) [Example 123, 3-(1-(4-fluorophenyl)-1H-indazol-5-yl)-2,2-dimethyl-3-phenyl-1-(thiophen-2-yl)propan-1-ol], for which the inhibitory constant (Ki) in experiment [1] amounted to 71 nM. Further, the concentration for a half-maximal effect (EC50) in experiment [2] (Homo sapiens, A549, 7 h) was more than 10000 nM.

As to `O=C(NCCC(c1ccccc1)c1ccc2c(cnn2-c2ccc(F)cc2)c1)C(F)(F)F` (stereo not shown) [Example 112, 2,2,2-Trifluoro-N-(3-(1-(4-fluorophenyl)-1H-indazol-5-yl)-3-phenylpropyl)acetamide], in experiment [1], the inhibition constant (Ki) was found to be 11 nM. The 50% effective concentration (EC50) in experiment [2] (Homo sapiens, A549, 7 h) was determined as 95 nM.

With `CC(C)(C(c1ccccc1)c1ccc2c(cnn2-c2ccc(F)cc2)c1)C(O)(c1ccccc1)C(F)(F)F` (stereo not shown) [Example 129, 1,1,1-Trifluoro-4-(1-(4-fluorophenyl)-1H-indazol-5-yl)-3,3-dimethyl-2,4-diphenylbutan-2-ol], the inhibitory constant (Ki) in experiment [1] amounted to 26 nM. The EC50 in experiment [2] (Homo sapiens, A549, 7 h) amounted to 202 nM.

For the compound `CC(C)(C(=O)c1ccccc1)C(c1ccccc1)c1ccc2c(cnn2-c2ccc(F)cc2)c1` (stereo not shown) [Example 125], in experiment [1], the Ki came out at 14 nM. Besides, the 50% effective concentration (EC50) in experiment [2] (Homo sapiens, A549, 7 h) is more than 10000 nM.

Consider `CC(C)CC(c1ccc2c(cnn2-c2ccc(F)cc2)c1)C(C)(C)CNC(N)=O` (stereo not shown) [Example 61, 1-(3-(1-(4-fluorophenyl)-1H-indazol-5-yl)-2,2,5-trimethylhexyl)urea], for which the Ki in experiment [1] was found to be 9.6 nM. Further, in experiment [2] (Homo sapiens, A549, 7 h), the EC50 is 371 nM.

Consider `CC(C)(C(O)c1ccccc1)C(c1ccccc1)c1ccc2c(cnn2-c2ccc(F)cc2)c1` (stereo not shown) [Example 121, 3-(1-(4-fluorophenyl)-1H-indazol-5-yl)-2,2-dimethyl-1,3-diphenylprop an-1-ol], for which the Ki in experiment [1] worked out at 69 nM. Also, the concentration for a half-maximal effect (EC50) in experiment [2] (Homo sapiens, A549, 7 h) worked out at 3850 nM.

Regarding `CC(C)CC(c1ccc2c(cnn2-c2ccc(F)cc2)c1)C(C)(C)CNC(=O)NCC(F)(F)F` (single isomer, unassigned) [Example 58A, 1-(3-(1-(4-fluorophenyl)-1H-indazol-5-yl)-2,2,5-trimethylhexyl)-3-(2,2,2-trifluoroethyl)urea], in experiment [1], the Ki worked out at 14 nM. The EC50 in experiment [2] (7 hours) was more than 10000 nM.

As to `CC(=O)C(C)(C)C(c1ccccc1)c1ccc2c(cnn2-c2ccc(F)cc2)c1` (stereo not shown) [Example 120, 4-(1-(4-Fluorophenyl)-1H-indazol-5-yl)-3,3-dimethyl-4-phenylbutan-2-one], the Ki in experiment [1] was 21 nM. The EC50 in experiment [2] (Homo sapiens, A549, 7 h) was more than 10000 nM.

For the compound `CC(C)CC(c1ccc2c(cnn2-c2ccc(F)cc2)c1)C(C)(C)CNS(=O)(=O)CC(F)(F)F` (single isomer, unassigned) [Example 57B, 2,2,2-trifluoro-N-(3-(1-(4-fluorophenyl)-1H-indazol-5-yl)-2,2,5-trimethylhexyl)-ethanesulfonamide], the Ki in experiment [1] amounted to 15 nM. For the same compound, in experiment [2] (7 hours), the EC50 was more than 10000 nM.

Consider `CC(C)(C(=O)c1cccs1)C(c1ccccc1)c1ccc2c(cnn2-c2ccc(F)cc2)c1` (stereo not shown) [Example 127], for which the inhibition constant (Ki) in experiment [1] was 7.8 nM. The EC50 in experiment [2] (Homo sapiens, A549, 7 h) is 5870 nM.

Take `CC(C)(CNC(=O)CC(F)(F)F)[C@H](c1ccccc1)c1ccc2[nH]ncc2c1` [(R)-82, (R)-N-(3-(1H-indazol-5-yl)-2,2-dimethyl-3-phenylpropyl)-3,3,3-trifluoropropanamide]: the inhibitory constant (Ki) in experiment [1] was found to be 628 nM. Also, in experiment [2] (Homo sapiens, A549, 7 h), the half-maximal effective concentration (EC50) was more than 10000 nM.

On to `CCCS(=O)(=O)NCC(C)(C)[C@@H](c1ccccc1)c1ccc2c(cnn2-c2ccc(F)cc2)c1` [Example 13, (S)-N-(3-(1-(4-fluorophenyl)-1H-indazol-5-yl)-2,2-dimethyl-3-phenylpropyl)propane-1-sulfonamide], for which the Ki in experiment [1] turned out to be 19 nM. In addition, in experiment [2] (Homo sapiens, A549, 7 h), the 50% effective concentration (EC50) was 181 nM.

For `CC(C)CC(c1ccc2c(cnn2-c2ccc(F)cc2)c1)C(C)(C)CNC(=O)N(C)C` (stereo not shown) [Example 65, 3-(3-(1-(4-fluorophenyl)-1H-indazol-5-yl)-2,2,5-trimethylhexyl)-1,1-dimethylurea], the Ki in experiment [1] worked out at 1.4 nM.

As to `CC(C)(C)NC(=O)NCC(C)(C)C(CCCO)c1ccc2c(cnn2-c2ccc(F)cc2)c1` (stereo not shown) [Example 107, 1-tert-Butyl-3-(3-(1-(4-fluorophenyl)-1H-indazol-5-yl)-6-hydroxy-2,2-dimethylhexyl)urea], in experiment [3], the Ki worked out at 3.1 nM. The half-maximal effective concentration (EC50) in experiment [2] (Homo sapiens, A549, 7 h) worked out at 2020 nM.

For `Cc1cc(C(C)(C)NC(=O)NCC(C)(C)C(CC(C)C)c2ccc3c(cnn3-c3ccc(F)cc3)c2)ccn1` (stereo not shown) [Example 53, 1-(3-(1-(4-fluorophenyl)-1H-indazol-5-yl)-2,2,5-trimethylhexyl)-3-(2-(2-methylpyridin-4-yl)propan-2-yl)urea], the inhibitory constant (Ki) in experiment [3] amounted to 1.8 nM. Also, the EC50 in experiment [2] (Homo sapiens, A549, 7 h) was 306 nM.

For `CC(CNS(=O)(=O)CC(F)(F)F)C(c1ccccc1)c1ccc2c(cnn2-c2ccc(F)cc2)c1` (single isomer, unassigned) [Example 91A, 2,2,2-trifluoro-N-(3-(1-(4-fluorophenyl)-1H-indazol-5-yl)-2-methyl-3-phenylpropyl)ethanesulfonamide], the Ki in experiment [3] was 2.1 nM. Also, the half-maximal effective concentration (EC50) in experiment [2] (7 hours) stood at 5.7 nM.

For the compound `CC(C)(C)NC(=O)NCC(C)(C)C(CC1CC1)c1ccc2c(cnn2-c2ccc(F)cc2)c1` (stereo not shown) [Example 108, 1-tert-Butyl-3-(4-cyclopropyl-3-(1-(4-fluorophenyl)-1H-indazol-5-yl)-2,2-dimethylbutyl)urea], in experiment [3], the Ki is 1.7 nM. In experiment [2] (Homo sapiens, A549, 7 h), the EC50 was determined as 8.1 nM.

Regarding `CC(C)CC(c1ccc2c(cnn2-c2ccc(F)cc2)c1)C(C)(C)CNC(=O)N[C@H]1CCc2ccccc21` (stereo partly drawn) [Example 71A, 1-((S)-2,3-dihydro-1H-inden-1-yl)-3-(3-(1-(4-fluorophenyl)-1H-indazol-5-yl)-2,2,5-trimethylhexyl)urea], in experiment [3], the Ki was 5.8 nM. For the same compound, the EC50 in experiment [2] (Homo sapiens, A549, 7 h) was found to be 194 nM.

As for `CC(CNS(C)(=O)=O)C(c1ccccc1)c1ccc2c(cnn2-c2ccc(F)cc2)c1` (stereo not shown) [Example 92, N-(3-(1-(4-fluorophenyl)-1H-indazol-5-yl)-2-methyl-3-phenylpropyl)methanesulfonamide], the Ki in experiment [3] came to 0.94 nM. Also, the EC50 in experiment [2] (Homo sapiens, A549, 7 h) amounted to 12 nM.

On to `CC(C)C(c1ccc2c(cnn2-c2ccc(F)cc2)c1)C(C)(C)CNC(=O)NC(C)(C)C` (stereo not shown) [Example 103, 1-tert-butyl-3-(3-(1-(4-fluorophenyl)-1H-indazol-5-yl)-2,2,4-trimethylpentyl)urea], for which, in experiment [3], the Ki was 5.9 nM. In addition, the 50% effective concentration (EC50) in experiment [2] (Homo sapiens, A549, 7 h) came to 349 nM.

In the case of `CC(C)CC(c1ccc2c(cnn2-c2ccc(F)cc2)c1)C(C)(C)CNC(=O)N1CCC[C@@H]1CO` (stereo partly drawn) [Example 39, (2R)-N-(3-(1-(4-fluorophenyl)-1H-indazol-5-yl)-2,2,5-trimethylhexyl)-2-(hydroxymethyl)pyrrolidine-1-carboxamide], the inhibition constant Ki in experiment [3] is 3.2 nM. Also, the EC50 in experiment [2] (Homo sapiens, A549, 7 h) is more than 10000 nM.

Take `CC(CNS(=O)(=O)CC(F)(F)F)C(c1ccccc1)c1ccc2c(cnn2-c2ccc(F)cc2)c1` (single isomer, unassigned) [Example 91C, 2,2,2-trifluoro-N-(3-(1-(4-fluorophenyl)-1H-indazol-5-yl)-2-methyl-3-phenylpropyl)ethanesulfonamide]: the Ki in experiment [3] was 2.8 nM. Also, the EC50 in experiment [2] (7 hours) turned out to be 83 nM.

Take `CC(C)CC(c1ccc2c(cnn2-c2ccc(F)cc2)c1)C(C)(C)CNC(=O)NC(C)(C)CC(=O)O` (stereo not shown) [Example 51, 3-(3-(3-(1-(4-fluorophenyl)-1H-indazol-5-yl)-2,2,5-trimethylhexyl)ureido)-3-methylbutanoic acid]: the inhibition constant (Ki) in experiment [3] came out at 3 nM. Besides, the EC50 in experiment [2] (Homo sapiens, A549, 7 h) was determined as 624 nM.

With `CC(C)CC(c1ccc2c(cnn2-c2ccc(F)cc2)c1)C(C)(C)CNC(=O)C(=O)C(C)(C)C` (stereo not shown) [Example 67, N-(3-(1-(4-fluorophenyl)-1H-indazol-5-yl)-2,2,5-trimethylhexyl)-3,3-dimethyl-2-oxobutanamide], in experiment [3], the Ki amounted to 5.6 nM. In addition, the concentration for a half-maximal effect (EC50) in experiment [2] (Homo sapiens, A549, 7 h) worked out at 164 nM.

The record behind these values is US8198311B2, “Modulators of glucocorticoid receptor, AP-1, and/or NF-κB activity and use thereof” (Bristol-Myers Squibb Company, priority 2006, dated 2012).
